Earlier results as cited in US20080112918A1, “Method for treating gout and binding uric acid” (priority 2001, published 2008).

Details: administered orally; treatment of gouty arthritis

COc1cc2c(c(OC)c1OC)-c1ccc(OC)c(=O)cc1[C@@H](NC(C)=O)CC2 [colchicine]
people who cannot tolerate the drug because of side effects: 80%
